Test results from ChEMBL document CHEMBL6109128, “Copper-KRAS-COX2 Axis: A Therapeutic Vulnerability in Pancreatic Cancer” (J Med Chem, 2025).
The source made the active and inactive calls. The rule behind the calls is not given here.

How the values were obtained:
MIA PaCa-2 [1] = assay: Synergistic antiproliferative activity against human MIA PaCa-2 cells assessed as inhibition of colony formation at up to 0.5 uM in presence of TTM; assay type: functional, cell-based
HCT-116 [2] = assay: Cytotoxicity against human HCT-116 cells assessed as cell death up to 1 uM incubated for 6 days in presence of NAC; assay type: functional, cell-based; settings: time 6.0 day
HCT-116 [3] = assay: Synergistic antiproliferative activity against human HCT-116 cells assessed as inhibition of colony formation at up to 1 uM incubated for 6 days in presence of rofecoxib; assay type: functional, cell-based; settings: time 6.0 day
HCT-116 [4] = assay: Induction of ferroptosis in human HCT-116 cells at up to 1 uM in presence of FIN56; assay type: functional, cell-based
Panc02 [5] = assay: Cytotoxicity against mouse Panc02 cells harboring wild type KRAS; assay type: functional, cell-based
MIA PaCa-2 [6] = assay: Induction of ferroptosis in human MIA PaCa-2 cells assessed as cell death at up to 1 uM in presence of […]; assay type: functional, cell-based
HCT-116 [7] = assay: Synergistic antiproliferative activity against human HCT-116 cells assessed as inhibition of colony formation at up to 1 uM incubated for 6 days in presence of CC-115; assay type: functional, cell-based; settings: time 6.0 day
[8] = Toxicity in C57BL/6 mouse assessed as body weight loss at 20 to 40 mg/kg, ip administered for 28 days; assay type: organism-based; settings: in vivo, 672 h, dose 20-40 mg/kg, time 28 day
MIA PaCa-2 [9] = assay: Induction of apoptosis in human MIA PaCa-2 cells assessed as upregulation of cleaved PARP level at 10 uM measured for 48 hrs by Western blot analysis; assay type: functional, cell-based
MIA PaCa-2 [10] = assay: Synergistic antiproliferative activity against human MIA PaCa-2 cells assessed as inhibition of colony formation at up to 1 uM incubated for 6 days in presence of celecoxib; assay type: functional, cell-based; settings: time 6.0 day
[11] = Half life in CD-1 mouse at 30 mg/kg, po measured up to 24 hrs by LC-MS/MS analysis; assay type: ADME, organism-based; settings: in vivo
HCT-116 [12] = assay: Induction of ferroptosis in human HCT-116 cells at up to 1 uM in presence of erastin; assay type: functional, cell-based
HCT-116 [13] = assay: Synergistic antiproliferative activity against human HCT-116 cells assessed as inhibition of colony formation at up to 1 uM incubated for 6 days in presence of JQ-1; assay type: functional, cell-based; settings: time 6.0 day
MIA PaCa-2 [14] = assay: Induction of apoptosis in human MIA PaCa-2 cells assessed as increase in clonogenic survival up to 0.5 uM incubated for 6 days in presence of Z-VAD-FMK by crystal violet staining based analysis; assay type: functional, cell-based; settings: time 6.0 day
HCT-116 [15] = assay: Induction of ferroptosis in human HCT-116 cells assessed as cell death at up to 1 uM in presence of […]; assay type: functional, cell-based
MIA PaCa-2 [16] = assay: Induction of ferroptosis in human MIA PaCa-2 cells assessed as cell death at up to 1 uM in presence of ferrostatin-1; assay type: functional, cell-based
[17] = Volume of distribution at steady state in CD-1 mouse at 15 mg/kg, iv measured up to 24 hrs by LC-MS/MS analysis; assay type: ADME, organism-based; settings: in vivo, read-out: Vdss
HCT-116 [18] = assay: Induction of apoptosis in human HCT-116 cells assessed as increase in clonogenic survival up to 1 uM incubated for 6 days in presence of Z-VAD-FMK by crystal violet staining based analysis; assay type: functional, cell-based; settings: time 6.0 day
HCT-116 [19] = assay: Synergistic antiproliferative activity against human HCT-116 cells assessed as inhibition of colony formation at up to 1 uM in presence of CuSO4; assay type: functional, cell-based
BXPC-3 [20] = assay: Synergistic antiproliferative activity against human BXPC-3 cells assessed as inhibition of colony formation at up to 1 uM incubated for 6 days in presence of valdecoxib; assay type: functional, cell-based; settings: time 6.0 day
HCT-116 [21] = assay: Synergistic antiproliferative activity against human HCT-116 cells assessed as inhibition of colony formation at up to 1 uM incubated for 6 days in presence of celecoxib; assay type: functional, cell-based; settings: time 6.0 day
MIA PaCa-2 [22] = assay: Induction of apoptosis in human MIA PaCa-2 cells assessed as upregulation of caspase 3 level at 10 uM measured for 48 hrs by Western blot analysis; assay type: functional, cell-based
[23] = Cmax in CD-1 mouse at 30 mg/kg, po measured up to 24 hrs by LC-MS/MS analysis; assay type: ADME, organism-based; settings: in vivo
HCT-116 [24] = assay: Induction of autophagy in human HCT-116 cells assessed as cell death at up to 1 uM incubated for 6 days in presence of MRT68921; assay type: functional, cell-based; settings: time 6.0 day
HCT-116 [25] = assay: Induction of ferroptosis in human HCT-116 cells assessed as cell death at up to 1 uM in presence of ferrostatin-1; assay type: functional, cell-based
HCT-116 [26] = assay: Induction of ferroptosis in human HCT-116 cells assessed as change in GPX4 level at 5 to 10 uM incubated for 18 hrs by Western blot analysis; assay type: functional, cell-based; settings: dose 5-10 µM
BXPC-3 [27] = assay: Cytotoxicity against human BXPC-3 cells harboring wild type KRAS; assay type: functional, cell-based
HCT-116 [28] = assay: Induction of autophagy in human HCT-116 cells assessed as cell death at up to 1 uM incubated for 6 days in presence of bafilomycin-A1; assay type: functional, cell-based; settings: time 6.0 day
MIA PaCa-2 [29] = assay: Synergistic antiproliferative activity against human MIA PaCa-2 cells assessed as inhibition of colony formation at up to 1 uM in presence of FeCl3; assay type: functional, cell-based
MIA PaCa-2 [30] = assay: Synergistic antiproliferative activity against human MIA PaCa-2 cells assessed as inhibition of colony formation at up to 0.5 uM in presence of CuSO4; assay type: functional, cell-based
HCT-116 [31] = assay: Synergistic antiproliferative activity against human HCT-116 cells assessed as inhibition of colony formation at up to 1 uM incubated for 6 days in presence of valdecoxib; assay type: functional, cell-based; settings: time 6.0 day
Panc02 [32] = assay: Cytotoxicity against mouse Panc02 cells by MTT assay; assay type: functional, cell-based
MIA PaCa-2 [33] = assay: Synergistic antiproliferative activity against human MIA PaCa-2 cells assessed as inhibition of colony formation at up to 1 uM incubated for 6 days in presence of MK-663; assay type: functional, cell-based; settings: time 6.0 day
[34] = AUC (0 to infinity) in CD-1 mouse at 15 mg/kg, iv measured up to 24 hrs by LC-MS/MS analysis; assay type: ADME, organism-based; settings: in vivo
MIA PaCa-2 [35] = assay: Antiproliferative activity against human MIA PaCa-2 cells harboring KRAS; assay type: functional, cell-based
HCT-116 [36] = assay: Synergistic antiproliferative activity against human HCT-116 cells assessed as inhibition of colony formation at up to 1 uM incubated for 6 days in presence of AZD6738; assay type: functional, cell-based; settings: time 6.0 day
PANC-1 = assay: Cytotoxicity against human PANC-1 cells by MTT assay; assay type: functional, cell-based
HCT-116 [37] = assay: Synergistic antiproliferative activity against human HCT-116 cells assessed as inhibition of colony formation at up to 10 uM in presence of TTM; assay type: functional, cell-based
MIA PaCa-2 [38] = assay: Induction of apoptosis in human MIA PaCa-2 cells assessed as increase in clonogenic survival up to 0.5 uM incubated for 6 days in presence of necrostatin-1 by crystal violet staining based analysis; assay type: functional, cell-based; settings: time 6.0 day
BXPC-3 [39] = assay: Induction of apoptosis in human BXPC-3 cells assessed as increase in clonogenic survival up to 0.5 uM incubated for 6 days in presence of necrostatin-1 by crystal violet staining based analysis; assay type: functional, cell-based; settings: time 6.0 day
HCT-116 [40] = assay: Synergistic antiproliferative activity against human HCT-116 cells assessed as inhibition of colony formation at up to 1 uM incubated for 6 days in presence of LY2603618; assay type: functional, cell-based; settings: time 6.0 day

## C[C@@H]1OCC2(CCN(c3cnc(C(=O)Nc4cc(F)cc5cccnc45)cn3)CC2)[C@@H]1N
MIA PaCa-2 [1]
  Activity: Active
HCT-116 [2]
  Activity: Active
HCT-116 [3]
  Activity: Active
HCT-116 [4]
  Activity: Active
Panc02 [5]
  Activity: inactive
MIA PaCa-2 [6]
  Activity: inactive
HCT-116 [7]
  Activity: Active
[8]
  Activity: Non-toxic
MIA PaCa-2 [9]
  Activity: Active
MIA PaCa-2 [10]
  Activity: Active
[11]
  half-life: 4.9 h
HCT-116 [12]
  Activity: Active
HCT-116 [13]
  Activity: Active
MIA PaCa-2 [14]
  Activity: Active
HCT-116 [15]
  Activity: inactive
MIA PaCa-2 [16]
  Activity: inactive
[17]
  Vd: 7.1 L/kg
HCT-116 [18]
  Activity: Active
HCT-116 [19]
  Activity: Active
BXPC-3 [20]
  Activity: Active
HCT-116 [21]
  Activity: Active
MIA PaCa-2 [22]
  Activity: Active
[23]
  Cmax: 1020 ng/mL
HCT-116 [24]
  Activity: Active
HCT-116 [25]
  Activity: inactive
HCT-116 [26]
  Activity: Active
BXPC-3 [27]
  Activity: inactive
HCT-116 [28]
  Activity: Active
MIA PaCa-2 [29]
  Activity: Active
MIA PaCa-2 [30]
  Activity: Active
HCT-116 [31]
  Activity: Active
Panc02 [32]
  IC50: 2.1 µM
MIA PaCa-2 [33]
  Activity: Active
[34]
  AUC(0-inf): 6090 ng·h/mL
MIA PaCa-2 [35]
  Activity: Active
HCT-116 [36]
  Activity: Active
PANC-1
  IC50: 2.9 µM
HCT-116 [37]
  Activity: Active
MIA PaCa-2 [38]
  Activity: Active
BXPC-3 [39]
  Activity: Active
HCT-116 [40]
  Activity: Active

## N[C@@H]1[C@H]2CN(c3cnc(C(=O)Nc4cc(F)cc5cccnc45)cn3)C[C@@H]12
MIA PaCa-2 [1]
  Activity: Active
HCT-116 [2]
  Activity: Active
HCT-116 [3]
  Activity: Active
HCT-116 [4]
  Activity: Active
Panc02 [5]
  Activity: inactive
MIA PaCa-2 [6]
  Activity: inactive
HCT-116 [7]
  Activity: Active
[8]
  Activity: Non-toxic
MIA PaCa-2 [9]
  Activity: Active
MIA PaCa-2 [10]
  Activity: Active
[11]
  half-life: 3.1 h
HCT-116 [12]
  Activity: Active
HCT-116 [13]
  Activity: Active
MIA PaCa-2 [14]
  Activity: Active
HCT-116 [15]
  Activity: inactive
MIA PaCa-2 [16]
  Activity: inactive
[17]
  Vd: 14.6 L/kg
HCT-116 [18]
  Activity: Active
HCT-116 [19]
  Activity: Active
BXPC-3 [20]
  Activity: Active
HCT-116 [21]
  Activity: Active
MIA PaCa-2 [22]
  Activity: Active
[23]
  Cmax: 364 ng/mL
HCT-116 [24]
  Activity: Active
HCT-116 [25]
  Activity: inactive
HCT-116 [26]
  Activity: Active
BXPC-3 [27]
  Activity: inactive
HCT-116 [28]
  Activity: Active
MIA PaCa-2 [29]
  Activity: Active
MIA PaCa-2 [30]
  Activity: Active
HCT-116 [31]
  Activity: Active
Panc02 [32]
  IC50: 8 µM
MIA PaCa-2 [33]
  Activity: Active
[34]
  AUC(0-inf): 3450 ng·h/mL
MIA PaCa-2 [35]
  Activity: Active
HCT-116 [36]
  Activity: Active
PANC-1
  IC50: 4.4 µM
HCT-116 [37]
  Activity: Active
MIA PaCa-2 [38]
  Activity: Active
BXPC-3 [39]
  Activity: Active
HCT-116 [40]
  Activity: Active
